Patent US7563621B2, “Absorbing organic reagents into diagnostic test devices by formation of amine salt complexes” (Siemens Healhcare Diagnostics Inc, priority 2003, dated 2009)
“And” between values parts separate entries of the source, which are not always exact repeats. Equal values may be shown once. Where a name gives a salt, the structure may show the parent alone.

Legend:
[1] = Butanol/water partitioning of pyrogallol red dye salts (Example 3); type: physicochemical; conditions: 276 nm, Sodium Hydroxide
Description: Extractions were then performed in Mixxor extractors.

Lambda Light Chain [2] = test: Automated protein assay with pyrogallol red salts, 54 μM (Example 5); conditions: Lambda Light Chain 25 mg/dL; 10 minutes; averaged data; listed as Sodium Salt
Description: (§1) The dilutor was programmed for reactions of 180 μL reagent+40 μL sample. […] The samples were phosphate buffered saline (blank), human serum albumin (HSA) 25 mg/dL, and other proteins (i.e., human IgG, […], and Lambda Light Chain) at 25 mg/dL. Absorbance rate data were collected on a Biotek, Powerwave X Microplate Absorbance reader using BioTek “KC Jr” software to determine the relative detection of the different proteins (i.e., HSA, human IgG, […], and Lambda Light Chain) using salts of pyrogallol red. Two sets of replicates of the different proteins were run. […] The protein response was determined by subtracting the phosphate buffered saline sample reaction result from the protein reaction result.

Tamm-Horsfall [3] = target: T1, Tamm-Horsfall (Homo sapiens, UniProt P07911); test: as above; conditions: 10 minutes
Description: as §1

human IgG [4] = test: as above; conditions: IgG 25 mg/dL; 10 minutes; averaged data; listed as Sodium Salt
Description: as §1

[5] = target: T2, human serum albumin (HSA) (Homo sapiens, UniProt P02768); test: as above; conditions: 10 minutes
Description: as §1

[6] = target: T2, human serum albumin (HSA); test: Automated protein assay with pyrogallol red salts, 74 μM (Example 6); conditions: HSA 25 mg/dL; 10 minutes, 37° C; 900 nm baseline subtracted; Series #1 and #2
Description: The dilutor was programmed for reactions of 180 μL reagent+40 μL sample. […] The samples were phosphate buffered saline (blank), human serum albumin (HSA) 25 mg/dL, and other proteins (i.e., human IgG, […], and Lambda Light Chain) at 25 mg/dL. Absorbance data were collected on a Biotek, Powerwave X Microplate Absorbance reader using BioTek “KC Jr” software to determine the relative detection of the different proteins (i.e., HSA, human IgG, […], and Lambda Light Chain) using salts of pyrogallol red. Two sets of replicates of the different proteins were run. […] The protein response was determined by subtracting the phosphate buffered saline sample reaction result from the protein reaction result.

Lambda Light Chain [7] = test: as above; conditions: Series #1 and #2; for Percent Detection as Percentage of HSA Detection: Lambda Light Chain
Description: (§2) The dilutor was programmed for reactions of 180 μL reagent+40 μL sample. […] The samples were phosphate buffered saline (blank), human serum albumin (HSA) 25 mg/dL, and other proteins (i.e., human IgG, […], and Lambda Light Chain) at 25 mg/dL. Absorbance data were collected on a Biotek, Powerwave X Microplate Absorbance reader using BioTek “KC Jr” software to determine the relative detection of the different proteins (i.e., HSA, human IgG, […], and Lambda Light Chain) using salts of pyrogallol red. Two sets of replicates of the different proteins were run. […] The protein response was determined by subtracting the phosphate buffered saline sample reaction result from the protein reaction result. […] The results for protein equivalence of the non-albumin proteins were expressed as a percentage of the protein colorimetric response to HSA as shown in Table 11 below.

Tamm-Horsfall [8] = target: T1, Tamm-Horsfall; test: as above; conditions: Series #1 and #2
Description: as §2

human IgG [9] = test: as above; conditions: Series #1 and #2
Description: as §2

[10] = Tamm-Horsfall 25 mg/dL, 37° C, replicates #1 and #2
[11] = Tamm-Horsfall, 37° C, replicates #1 and #2
[12] = HSA 25 mg/dL, 37° C, replicates #1 and #2
[13] = HSA, 37° C, replicates #1 and #2

T2 sequence (P02768 25-609): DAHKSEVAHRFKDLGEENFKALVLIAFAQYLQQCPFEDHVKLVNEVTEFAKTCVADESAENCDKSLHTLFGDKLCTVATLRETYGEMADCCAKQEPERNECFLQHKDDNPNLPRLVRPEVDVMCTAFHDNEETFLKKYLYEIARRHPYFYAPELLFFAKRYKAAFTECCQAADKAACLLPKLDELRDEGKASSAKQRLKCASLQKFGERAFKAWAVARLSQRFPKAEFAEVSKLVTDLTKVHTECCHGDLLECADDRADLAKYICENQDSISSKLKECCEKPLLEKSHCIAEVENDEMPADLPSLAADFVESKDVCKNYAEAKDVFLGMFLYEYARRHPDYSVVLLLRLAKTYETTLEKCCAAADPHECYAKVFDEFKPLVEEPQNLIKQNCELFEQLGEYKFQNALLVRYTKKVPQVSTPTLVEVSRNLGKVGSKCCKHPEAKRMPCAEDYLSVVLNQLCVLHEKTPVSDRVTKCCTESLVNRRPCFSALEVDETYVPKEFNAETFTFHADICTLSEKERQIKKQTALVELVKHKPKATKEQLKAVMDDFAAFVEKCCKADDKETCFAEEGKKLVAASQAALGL

O=c1ccc2c(-c3ccccc3S(=O)(=O)O)c3ccc(O)c(O)c3oc-2c1O [Sodium Pyrogallol Red Salt, pyrogallol red, reference compound]
Ratio of Butanol Absorbance to Water Absorbance [1]: 0.10
Absorbance of Dye Salt in Butanol ([1]; butanol layer): 0.034
Absorbance of Dye Salt in Water ([1]; water layer): 0.338
Reaction Absorbance at 600 nm − Absorbance at 900 nm (net protein response, protein minus non-protein sample) (Lambda Light Chain [2]): 0.006
600 nm Absorbance Level, salt with Protein (Tamm-Horsfall [3]; [10]): 0.203 and 0.204
900 nm Absorbance Background Level, salt with Protein (Tamm-Horsfall [3]; [10]): 0.036
Reaction Absorbance at 600 nm − Absorbance at 900 nm (net protein response, protein minus non-protein sample) (Tamm-Horsfall [3]; Tamm-Horsfall 25 mg/dL, averaged data, listed as Sodium Salt): 0.007
600 nm Absorbance Level, salt in Phosphate Buffered Saline (No Protein) (Tamm-Horsfall [3]; [11]): 0.196 and 0.198
900 nm Absorbance Background Level, salt in Phosphate Buffered Saline (No Protein) (Tamm-Horsfall [3]; [11]): 0.036 and 0.035
Reaction Absorbance at 600 nm − Absorbance at 900 nm (net protein response, protein minus non-protein sample) (human IgG [4]): 0.008
600 nm Absorbance Level, salt with Protein [5, 12]: 0.211
900 nm Absorbance Background Level, salt with Protein [5, 12]: 0.035
Reaction Absorbance at 600 nm − Absorbance at 900 nm (net protein response, protein minus non-protein sample) ([5]; HSA 25 mg/dL, averaged data, listed as Sodium Salt): 0.015
600 nm Absorbance Level, salt in Phosphate Buffered Saline (No Protein) [5, 13]: 0.197 and 0.196
900 nm Absorbance Background Level, salt in Phosphate Buffered Saline (No Protein) [5, 13]: 0.035
average net absorbance at 600 nm after subtracting PBS sample reaction result [6]: 0.0563 and 0.0536
average net absorbance at 600 nm after subtracting PBS sample reaction result (Lambda Light Chain [7]; Lambda Light Chain 25 mg/dL, 10 minutes, 37° C, 900 nm baseline subtracted): 0.0041 and 0.0037
Percent Detection as Percentage of HSA Detection (Lambda Light Chain [7]): 8% and 7%
Percent Detection as Percentage of HSA Detection (Lambda Light Chain [7]; listed as sodium): 8%
average net absorbance at 600 nm after subtracting PBS sample reaction result (Tamm-Horsfall [8]; Tamm-Horsfall 25 mg/dL, 10 minutes, 37° C, 900 nm baseline subtracted): 0.0141 and 0.0118
Percent Detection as Percentage of HSA Detection (Tamm-Horsfall [8]; Tamm-Horsfall): 26% and 21%
average net absorbance at 600 nm after subtracting PBS sample reaction result (human IgG [9]; IgG 25 mg/dL, 10 minutes, 37° C, 900 nm baseline subtracted): 0.0311 and 0.0318
Percent Detection as Percentage of HSA Detection (human IgG [9]; IgG): 58% and 56%
